In ChEMBL document CHEMBL4041467, “Synthesis of novel 15-membered 8a-azahomoerythromycin A acylides: Consequences of structural modification at the C-3 and C-6 position on antibacterial activity” (Eur J Med Chem, 2017):
Converted amounts (≈) assume the structure as drawn.

How the values were obtained:
Streptococcus pyogenes [1] = experiment: Antibacterial activity against constitutively macrolide/lincosamide/streptogramin B-resistant Streptococcus pyogenes by agar microdilution method; assay type: functional
Streptococcus pneumoniae [2] = experiment: Antibacterial activity against constitutively macrolide/lincosamide/streptogramin B-resistant Streptococcus pneumoniae by agar microdilution method; assay type: functional
Streptococcus pneumoniae [3] = experiment: Antibacterial activity against erythromycin susceptible Streptococcus pneumoniae by agar microdilution method; assay type: functional
Staphylococcus aureus [4] = experiment: Antibacterial activity against inducibly macrolide/lincosamide/streptogramin B-resistant Staphylococcus aureus by agar microdilution method; assay type: functional
Staphylococcus aureus [5] = experiment: Antibacterial activity against constitutively macrolide/lincosamide/streptogramin B-resistant Staphylococcus aureus by agar microdilution method; assay type: functional
Streptococcus pyogenes [6] = experiment: Antibacterial activity against erythromycin susceptible Streptococcus pyogenes by agar microdilution method; assay type: functional
Streptococcus pneumoniae [7] = experiment: Antibacterial activity against Mef-mediated macrolide efflux resistant Streptococcus pneumoniae by agar microdilution method; assay type: functional
Staphylococcus aureus [8] = experiment: Antibacterial activity against erythromycin susceptible Staphylococcus aureus by agar microdilution method; assay type: functional
Streptococcus pyogenes [9] = experiment: Antibacterial activity against Mef-mediated macrolide efflux resistant Streptococcus pyogenes by agar microdilution method; assay type: functional
Haemophilus influenzae = experiment: Antibacterial activity against Haemophilus influenzae by agar microdilution method; assay type: functional
Plasma = experiment: Stability in rat plasma at 1 uM up to 120 mins by LC-MS/MS analysis; assay type: ADME, cell-free; details: 2 h

COC(=O)c1cn(C2CC2)c2cc(N3CCNCC3)c(F)cc2c1=O showed an MIC (Streptococcus pyogenes [1]) of over 64 µg/mL, an MIC (Streptococcus pneumoniae [2]) of over 64 µg/mL and an MIC (Streptococcus pneumoniae [3]) of over 64 µg/mL. The MIC (Staphylococcus aureus [4]) was over 64 µg/mL, the MIC (Staphylococcus aureus [5]) was over 64 µg/mL and the MIC (Streptococcus pyogenes [6]) was over 64 µg/mL. It also gave an MIC (Streptococcus pneumoniae [7]) of over 64 µg/mL, an MIC (Staphylococcus aureus [8]) of over 64 µg/mL and an MIC (Streptococcus pyogenes [9]) of over 64 µg/mL. It also gave an MIC (Haemophilus influenzae) of 16 µg/mL (≈ 46.3 µM).

With O=C(O)c1cn(C2CC2)c2cc(Cl)c(N3CCNCC3)cc2c1=O the MIC (Streptococcus pyogenes [1]) was over 64 µg/mL, the MIC (Streptococcus pneumoniae [2]) was over 64 µg/mL and the MIC (Streptococcus pneumoniae [3]) was over 64 µg/mL. It also gave an MIC (Staphylococcus aureus [4]) of over 64 µg/mL, an MIC (Staphylococcus aureus [5]) of over 64 µg/mL and an MIC (Streptococcus pyogenes [6]) of over 64 µg/mL. For the same compound, the MIC (Streptococcus pneumoniae [7]) was over 64 µg/mL, the MIC (Staphylococcus aureus [8]) was over 64 µg/mL and the MIC (Streptococcus pyogenes [9]) was over 64 µg/mL. For the same compound, the MIC (Haemophilus influenzae) was over 64 µg/mL.

C=CCO[C@]1(C)C[C@@H](C)NC(=O)[C@H](C)[C@@H](O)[C@](C)(O)[C@@H](CC)OC(=O)[C@H](C)[C@@H](OC(=O)CCN2CCN(c3ccc4c(c3)c(=O)c(C(=O)O)cn4C3CC3)CC2)[C@H](C)[C@H]1O[C@@H]1O[C@H](C)C[C@H](N(C)C)[C@H]1O gave an MIC (Streptococcus pyogenes [1]) of 32 µg/mL (≈ 32.1 µM), an MIC (Streptococcus pneumoniae [2]) of 16 µg/mL (≈ 16 µM) and an MIC (Streptococcus pneumoniae [3]) of 2 µg/mL (≈ 2 µM). It also gave an MIC (Staphylococcus aureus [4]) of 8 µg/mL (≈ 8.01 µM), an MIC (Staphylococcus aureus [5]) of over 64 µg/mL and an MIC (Streptococcus pyogenes [6]) of 4 µg/mL (≈ 4.01 µM). The MIC (Streptococcus pneumoniae [7]) was 4 µg/mL (≈ 4.01 µM), the MIC (Staphylococcus aureus [8]) was 4 µg/mL (≈ 4.01 µM) and the MIC (Streptococcus pyogenes [9]) was 16 µg/mL (≈ 16 µM). It also gave an MIC (Haemophilus influenzae) of 16 µg/mL (≈ 16 µM).

Compound CC[C@H]1OC(=O)[C@H](C)[C@@H](OC(=O)CCNCCNc2cc3c(=O)c(C(=O)O)cn(C4CC4)c3cc2Cl)[C@H](C)[C@@H](O[C@@H]2O[C@H](C)C[C@H](N(C)C)[C@H]2O)[C@](C)(OC/C=C/c2cnc3ccccc3n2)C[C@@H](C)NC(=O)[C@H](C)[C@@H](O)[C@]1(C)O has an MIC (Streptococcus pyogenes [1]) of 16 µg/mL (≈ 14.1 µM), an MIC (Streptococcus pneumoniae [2]) of 1 µg/mL (≈ 0.881 µM) and an MIC (Streptococcus pneumoniae [3]) of at most 0.125 µg/mL. It also gave an MIC (Staphylococcus aureus [4]) of 1 µg/mL (≈ 0.881 µM), an MIC (Staphylococcus aureus [5]) of over 64 µg/mL and an MIC (Streptococcus pyogenes [6]) of at most 0.125 µg/mL. The MIC (Streptococcus pneumoniae [7]) was 0.5 µg/mL (≈ 0.441 µM), the MIC (Staphylococcus aureus [8]) was 0.5 µg/mL (≈ 0.441 µM) and the MIC (Streptococcus pyogenes [9]) was 1 µg/mL (≈ 0.881 µM). The MIC (Haemophilus influenzae) was 4 µg/mL (≈ 3.52 µM).

C=CCO[C@]1(C)C[C@@H](C)NC(=O)[C@H](C)[C@@H](O)[C@](C)(O)[C@@H](CC)OC(=O)[C@H](C)[C@@H](OC(=O)CCN2CCN(c3cc4c(cc3F)c(=O)c(C(=O)O)cn4C3CC3)CC2)[C@H](C)[C@H]1O[C@@H]1O[C@H](C)C[C@H](N(C)C)[C@H]1O showed an MIC (Streptococcus pyogenes [1]) of 8 µg/mL (≈ 7.87 µM), an MIC (Streptococcus pneumoniae [2]) of 4 µg/mL (≈ 3.94 µM) and an MIC (Streptococcus pneumoniae [3]) of 0.5 µg/mL (≈ 0.492 µM). It also gave an MIC (Staphylococcus aureus [4]) of 1 µg/mL (≈ 0.984 µM), an MIC (Staphylococcus aureus [5]) of over 64 µg/mL and an MIC (Streptococcus pyogenes [6]) of 0.5 µg/mL (≈ 0.492 µM). For the same compound, the MIC (Streptococcus pneumoniae [7]) was 1 µg/mL (≈ 0.984 µM), the MIC (Staphylococcus aureus [8]) was 0.5 µg/mL (≈ 0.492 µM) and the MIC (Streptococcus pyogenes [9]) was 0.5 µg/mL (≈ 0.492 µM). The MIC (Haemophilus influenzae) was 4 µg/mL (≈ 3.94 µM) and the Stability (Plasma) was “Stable”.

Compound CC[C@H]1OC(=O)[C@H](C)[C@@H](OC(=O)CCNCCNc2cc3c(=O)c(C(=O)O)cn(C4CC4)c3cc2Cl)[C@H](C)[C@@H](O[C@@H]2O[C@H](C)C[C@H](N(C)C)[C@H]2O)[C@](C)(OC/C=C/c2cccc3ncccc23)C[C@@H](C)NC(=O)[C@H](C)[C@@H](O)[C@]1(C)O has an MIC (Streptococcus pyogenes [1]) of 32 µg/mL (≈ 28.2 µM), an MIC (Streptococcus pneumoniae [2]) of 8 µg/mL (≈ 7.06 µM) and an MIC (Streptococcus pneumoniae [3]) of 0.5 µg/mL (≈ 0.441 µM). The MIC (Staphylococcus aureus [4]) was 2 µg/mL (≈ 1.76 µM), the MIC (Staphylococcus aureus [5]) was over 64 µg/mL and the MIC (Streptococcus pyogenes [6]) was 1 µg/mL (≈ 0.882 µM). For the same compound, the MIC (Streptococcus pneumoniae [7]) was 4 µg/mL (≈ 3.53 µM), the MIC (Staphylococcus aureus [8]) was 1 µg/mL (≈ 0.882 µM) and the MIC (Streptococcus pyogenes [9]) was 4 µg/mL (≈ 3.53 µM). For the same compound, the MIC (Haemophilus influenzae) was 8 µg/mL (≈ 7.06 µM).
